In ChEMBL document CHEMBL5380807, “Imidazo[1,2-a]Pyridine Derivatives as Novel Dual-Target Inhibitors of ABCB1 and ABCG2 for Reversing Multidrug Resistance” (J Med Chem, 2023):
Calls of active or inactive are those of the source. The calls are words filed in the database; no cut-off is given here.

What was measured:
[1] = Toxicity in BALB/c mouse xenografted with human K562 cells assessed as body weight loss at 20 mg/kg, iv QD for 14 days; type: organism-based; conditions: in vivo, 336 h, time 14 day
[2] = Toxicity in BALB/c mouse xenografted with human K562/A02 cells overexpressing ABCB1 assessed as body weight loss at 10 to 40 mg/kg, iv QD for 14 days in presence of adriamycin; type: organism-based; conditions: in vivo, 336 h, dose 10-40 mg/kg, time 14 day
[3] = AUC (0 to infinity) in Sprague-Dawley rat at 5 mg/kg, iv by LC-MS/MS analysis; type: ADME, organism-based; design: dose 5 mg/kg, route iv; conditions: in vivo
K562 [4] = test: Antitumor activity against human K562 cells xenografted in BALB/c mouse assessed as tumor growth inhibition at 40 mg/kg, iv QD for 14 days in presence of adriamycin; type: functional, organism-based; conditions: time 14.0 day
HEK293 [5] = test: Reversal of ABCG2 mediated multidrug resistance in human HEK293 overexpressing ABCG2 assessed as decrease in survival rate at 1.25 to 5 uM preincubated for 1 hrs followed by topotecan addition and measured after 72 hrs by SRB assay; type: functional, cell-based; conditions: dose 1.25-5 µM, time 73.0 hrs
[6] = Stability in rat plasma assessed as parent compound remaining at 80 ug/ml and measured after 300 mins by LC-MS/MS analysis; type: ADME, cell-free; conditions: 5 h, at 80 µg/mL
K562 [7] = test: Reversal of ABCB1 mediated adriamycin resistance in human K562 assessed as decrease in survival rate at 1.25 to 5 uM preincubated for 1 hrs followed by adriamycin addition and measured after 72 hrs by MTS assay; type: functional, cell-based; conditions: dose 1.25-5 µM, time 73.0 hrs
K562/A02 [8] = test: Reversal of ABCB1 mediated multidrug resistance in human K562/A02 cells overexpressing ABCB1 assessed as change in abcb1 mRNA expression level at 2.5 uM incubated for 72 hrs by real time RT-PCR analysis; type: functional, cell-based
[9] = Toxicity in BALB/c mouse xenografted with human K562/A02 cells overexpressing ABCB1 assessed as body weight loss at 20 mg/kg, iv QD for 14 days; type: organism-based; conditions: in vivo, 336 h, time 14 day
HEK293 [10] = test: Reversal of ABCG2 mediated mitoxantrone resistance in human HEK293 assessed as decrease in survival rate at 1.25 to 5 uM preincubated for 1 hrs followed by mitoxantrone addition and measured after 72 hrs by SRB assay; type: functional, cell-based; conditions: dose 1.25-5 µM, time 73.0 hrs
[11] = Cytotoxicity against human K562/A02 cells overexpressing ABCB1 assessed as decrease in cell survival rate incubated for 72 hrs by MTS assay; type: toxicity, cell-based
HEK293 [12] = test: Reversal of ABCG2 mediated multidrug resistance in human HEK293 cells overexpressing ABCG2 assessed as change in abcg2 mRNA expression level at 2.5 uM incubated for 48 hrs by real time RT-PCR analysis; type: functional, cell-based
[13] = AUCt in Sprague-Dawley rat at 5 mg/kg, iv by LC-MS/MS analysis; type: ADME, organism-based; design: dose 5 mg/kg, route iv; conditions: in vivo
HEK293 [14] = test: Reversal of ABCG2 mediated multidrug resistance in human HEK293 cells overexpressing ABCG2 assessed as change in ABCG2 protein expression level at 2.5 uM incubated for 48 hrs by Western blot analysis; type: functional, cell-based
[15] = Volume of distribution at steady state in Sprague-Dawley rat at 5 mg/kg, iv by LC-MS/MS analysis; type: ADME, organism-based; conditions: in vivo, read-out: Vdss
K562/A02 [16] = test: Reversal of ABCB1 mediated multidrug resistance in human K562/A02 cells overexpressing ABCB1 assessed as change in ABCB1 protein expression level at 2.5 uM incubated for 72 hrs by Western blot analysis; type: functional, cell-based
[17] = target: ATP-dependent translocase ABCB1 (Homo sapiens, UniProt P08183); test: Inhibition of ABCB1 (unknown origin) ATPase activity assessed as decrease in luminescence by firefly luciferase reporter assay
K562/A02 [18] = test: Reversal of ABCB1 mediated adriamycin resistance in human K562/A02 overexpressing ABCB1 assessed as decrease in survival rate at 5 uM preincubated for 1 hrs followed by adriamycin addition and measured after 72 hrs by MTS assay; type: functional
[19] = Half life in Sprague-Dawley rat at 5 mg/kg, iv by LC-MS/MS analysis; type: ADME, organism-based; conditions: in vivo
K562/A02 [20] = test: Reversal of ABCB1 mediated multidrug resistance in human K562/A02 cells overexpressing ABCB1 assessed as decrease in survival rate at 1.25 to 5 uM preincubated for 1 hrs followed by vincristine addition and measured after 72 hrs by MTS assay; type: functional, cell-based; conditions: dose 1.25-5 µM, time 73.0 hrs
HEK293 [21] = test: Reversal of ABCG2 mediated multidrug resistance in human HEK293 overexpressing ABCG2 assessed as decrease in survival rate at 1.25 to 5 uM preincubated for 1 hrs followed by adriamycin addition and measured after 72 hrs by SRB assay; type: functional, cell-based; conditions: dose 1.25-5 µM, time 73.0 hrs
K562/A02 [22] = test: Antitumor activity against human K562/A02 cells overexpressing ABCB1 xenografted in BALB/c mouse assessed as tumor growth inhibition at 40 mg/kg, iv QD for 14 days in presence of adriamycin; type: functional, organism-based; conditions: time 14.0 day
K562/A02 [23] = test: Reversal of ABCB1 mediated multidrug resistance in human K562/A02 cells overexpressing ABCB1 assessed as decrease in survival rate at 1.25 uM preincubated for 1 hrs followed by vincristine addition and measured after 72 hrs by MTS assay; type: functional; conditions: time 73 hrs
[24] = Metabolic stability in rat liver microsomes assessed as half life at 80 ug/ml preincubated for 5 mins followed by NADPH addition and measured upto 120 mins by LC-MS/MS analysis; type: ADME, Microsome; conditions: dose 80 µg/ml, time < 125 min
K562/A02 [25] = test: Reversal of ABCB1 mediated multidrug resistance in human K562/A02 cells overexpressing ABCB1 assessed as decrease in survival rate at 1.25 to 5 uM preincubated for 1 hrs followed by paclitaxel addition and measured after 72 hrs by MTS assay; type: functional, cell-based; conditions: dose 1.25-5 µM, time 73.0 hrs
HEK293 [26] = test: Reversal of ABCG2 mediated mitoxantrone resistance in human HEK293 overexpressing ABCG2 assessed as decrease in survival rate at 1.25 to 5 uM preincubated for 1 hrs followed by mitoxantrone addition and measured after 72 hrs by SRB assay; type: functional, cell-based; conditions: dose 1.25-5 µM, time 73.0 hrs
[27] = Cytotoxicity against human HEK293 cells expressing ABCG2 assessed as reduction in cell viability incubated for 72 hrs by SRB assay; type: toxicity, cell-based
[28] = Metabolic stability in rat liver microsomes assessed as intrinsic clearance at 80 ug/ml preincubated for 5 mins followed by NADPH addition and measured upto 120 mins by LC-MS/MS analysis; type: ADME, Microsome; conditions: dose 80 µg/ml, time < 125 min, read-out: CLH
K562/A02 [29] = test: Reversal of ABCB1 mediated adriamycin resistance in human K562/A02 overexpressing ABCB1 assessed as decrease in survival rate at 1.25 to 5 uM preincubated for 1 hrs followed by adriamycin addition and measured after 72 hrs by MTS assay; type: functional, cell-based; conditions: dose 1.25-5 µM, time 73.0 hrs
[30] = Toxicity in BALB/c mouse xenografted with human K562 cells assessed as body weight loss at 10 to 40 mg/kg, iv QD for 14 days in presence of adriamycin; type: organism-based; conditions: in vivo, 336 h, dose 10-40 mg/kg, time 14 day
[31] = Toxicity in iv dosed BALB/c mouse xenografted with human K562/A02 cells overexpressing ABCB1 assessed as lethality; type: organism-based; conditions: in vivo
[32] = Clearance in Sprague-Dawley rat at 5 mg/kg, iv by LC-MS/MS analysis; type: ADME, organism-based; conditions: in vivo
[33] = Cytotoxicity against human HEK293 cells assessed as reduction in cell viability incubated for 72 hrs by SRB assay; type: toxicity, cell-based
[34] = target: T1, Broad substrate specificity ATP-binding cassette transporter ABCG2 (Homo sapiens, UniProt Q9UNQ0); test: Inhibition of ABCG2 (unknown origin) ATPase activity assessed as decrease in luminescence by firefly luciferase reporter assay
T1 sequence (Q9UNQ0 whole entry): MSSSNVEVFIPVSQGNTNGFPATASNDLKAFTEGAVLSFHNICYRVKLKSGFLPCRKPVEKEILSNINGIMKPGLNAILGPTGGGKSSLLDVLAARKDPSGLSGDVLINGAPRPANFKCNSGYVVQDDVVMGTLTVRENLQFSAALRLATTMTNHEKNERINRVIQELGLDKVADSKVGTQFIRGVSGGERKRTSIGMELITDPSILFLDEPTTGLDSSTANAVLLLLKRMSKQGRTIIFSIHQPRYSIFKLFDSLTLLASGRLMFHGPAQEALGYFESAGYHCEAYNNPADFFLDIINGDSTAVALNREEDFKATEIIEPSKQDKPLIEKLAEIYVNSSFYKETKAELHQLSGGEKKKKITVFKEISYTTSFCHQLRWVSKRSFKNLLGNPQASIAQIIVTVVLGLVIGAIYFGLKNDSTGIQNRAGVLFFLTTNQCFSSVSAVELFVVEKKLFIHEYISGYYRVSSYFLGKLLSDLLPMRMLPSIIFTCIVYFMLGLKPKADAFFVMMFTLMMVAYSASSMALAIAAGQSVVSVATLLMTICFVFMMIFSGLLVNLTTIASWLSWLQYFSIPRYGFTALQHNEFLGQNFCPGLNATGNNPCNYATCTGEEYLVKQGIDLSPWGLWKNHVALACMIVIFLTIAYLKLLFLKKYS

[35] = Cytotoxicity against human K562 cells assessed as decrease in cell survival rate incubated for 72 hrs by MTS assay; type: toxicity, cell-based

Chain of ATP-dependent translocase ABCB1 (P08183 whole entry): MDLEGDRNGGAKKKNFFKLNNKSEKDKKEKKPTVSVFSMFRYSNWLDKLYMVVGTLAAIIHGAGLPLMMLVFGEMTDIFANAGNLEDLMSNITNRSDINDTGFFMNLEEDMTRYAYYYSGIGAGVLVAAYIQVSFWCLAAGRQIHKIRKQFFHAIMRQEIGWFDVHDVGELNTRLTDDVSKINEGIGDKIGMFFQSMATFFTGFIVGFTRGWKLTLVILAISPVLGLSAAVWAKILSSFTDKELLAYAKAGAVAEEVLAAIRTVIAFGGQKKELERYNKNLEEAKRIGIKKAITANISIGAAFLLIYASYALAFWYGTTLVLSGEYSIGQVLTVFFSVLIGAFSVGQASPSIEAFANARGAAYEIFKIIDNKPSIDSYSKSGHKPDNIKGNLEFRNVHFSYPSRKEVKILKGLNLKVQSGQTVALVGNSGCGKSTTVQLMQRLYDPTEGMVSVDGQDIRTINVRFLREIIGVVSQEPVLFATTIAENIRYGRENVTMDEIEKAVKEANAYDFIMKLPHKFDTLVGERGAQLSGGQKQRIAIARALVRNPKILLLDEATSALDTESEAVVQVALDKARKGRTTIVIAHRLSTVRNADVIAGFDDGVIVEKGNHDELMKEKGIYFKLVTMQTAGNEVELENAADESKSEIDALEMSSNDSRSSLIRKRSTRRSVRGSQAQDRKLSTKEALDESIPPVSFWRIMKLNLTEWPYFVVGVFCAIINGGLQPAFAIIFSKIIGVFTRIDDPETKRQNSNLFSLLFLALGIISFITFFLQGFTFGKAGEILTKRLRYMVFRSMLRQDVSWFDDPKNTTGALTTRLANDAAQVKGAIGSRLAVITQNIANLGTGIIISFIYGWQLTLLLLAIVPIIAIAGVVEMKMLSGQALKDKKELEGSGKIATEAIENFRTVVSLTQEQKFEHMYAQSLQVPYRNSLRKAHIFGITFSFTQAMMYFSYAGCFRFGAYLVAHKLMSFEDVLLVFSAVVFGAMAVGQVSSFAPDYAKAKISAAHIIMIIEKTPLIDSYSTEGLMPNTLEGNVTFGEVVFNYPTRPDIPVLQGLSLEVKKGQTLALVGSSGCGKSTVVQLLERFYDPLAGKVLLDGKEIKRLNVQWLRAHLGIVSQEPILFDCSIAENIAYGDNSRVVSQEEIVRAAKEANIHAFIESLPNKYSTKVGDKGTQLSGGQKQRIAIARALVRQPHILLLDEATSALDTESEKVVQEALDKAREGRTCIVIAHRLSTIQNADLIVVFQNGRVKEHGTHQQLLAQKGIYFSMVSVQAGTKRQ

O=C(CN1CCN(c2ccc(OC(F)(F)F)cc2)CC1)Nc1ccc(-c2nc3ccccn3c2CN2CCN(c3ccccc3)CC2)cc1
Activity [1]: Non-Toxic | Activity [2]: Non-Toxic | AUC(0-inf) [3]: 676 ng·h/mL | Activity (K562 [4]): inactive | Activity (HEK293 [5]): Active | Stability [6]: Stable | Activity (K562 [7]): inactive | Activity (K562/A02 [8]): inactive | Activity [9]: Non-Toxic | Activity (HEK293 [10]): inactive | IC50 at 72 h [11]: > 100 µM | Activity (HEK293 [12]): inactive | AUC(0-t) [13]: 651 ng·h/mL | Activity (HEK293 [14]): inactive | Vd [15]: 9.41 L/kg | Activity (K562/A02 [16]): inactive | inhibition (INH) [17]: Active | Activity (K562/A02 [18]): <30% | half-life [19]: 2.25 h | Activity (K562/A02 [20]): Active | Activity (HEK293 [21]): Active | Activity (K562/A02 [22]): Active | Activity (K562/A02 [23]): 56% | half-life at 80 ug/ml [24]: 1.02 h | Activity (K562/A02 [25]): Active | Activity (HEK293 [26]): Active | IC50 at 72 h [27]: 67.7 µM | microsomal CLint at 80 ug/ml [28]: 2.27 µL/min/mg | Activity (K562/A02 [29]): Active | Activity [30]: Non-Toxic | LD50 [31]: > 200 mg/kg/day | clearance [32]: 130 mL/min/kg | IC50 at 72 h [33]: 53.4 µM | inhibition (INH) [34]: Active | IC50 at 72 h [35]: > 100 µM
